# Laboratory results as given in US20200399222A1, “PICOLINAMIDES AS FUNGICIDES” (Dow AgroSciences LLC, priority 2018, published 2020).
# Like-named read-outs stand apart in the source and are kept apart here.
# How the values were obtained:
# Type in all cases: in vivo
# Puccinia triticina = assay: Wheat brown rust (PUCCRT) disease control on wheat seedlings; details: for pest or weed control at 100 ppm: High volume application; for pest or weed control at 121.5 g/ha: Low volume application
# In short: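 Yuma wheat seedlings (first leaf emerged) sprayed to run-off with compound in acetone plus nine volumes water containing 110 ppm Triton X-100, or track-sprayed as EC formulations with 0.1% Trycol 5941. Rust spores inoculated before or after treatment; overnight dark dew, 22 °C, 100% RH, then greenhouse at 24 °C.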
# Zymoseptoria tritici = assay: Leaf blotch of wheat (SEPTTR) disease control on wheat seedlings; details: for pest or weed control at 100 ppm: High volume application; for pest or weed control at 121.5 g/ha: Low volume application
# Phakopsora pachyrhizi = assay: Asian soybean rust (PHAKPA) disease control on soybean seedlings; details: Phakopsora pachyrhizi, High volume application at 25 ppm
# In short: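 Compounds in acetone diluted with nine volumes of water containing 0.011% Tween 20, sprayed to run-off on two-week-old Williams 82 soybean seedlings; inoculation 3 days before or 1 day after treatment. Plants held 24 h in dark dew room at 22° C, 100% RH, then at 23° C; disease severity scored on sprayed leaves.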
# [1] = 24 h, 1 Day Protectant, read-out: PUCCRT disease control rating, 1DP
# [2] = 72 h, 3 Day Curative, read-out: PUCCRT disease control rating, 3DC
# [3] = 24 h, 1 Day Protectant, read-out: SEPTTR disease control rating, 1DP
# [4] = 72 h, 3 Day Curative, read-out: SEPTTR disease control rating, 3DC
# [5] = 24 h, 1 day protectant, read-out: PHAKPA 1DP (1 Day Protectant) disease control
# [6] = 72 h, 3 day curative, read-out: PHAKPA 3DC (3 Day Curative) disease control
Compound,pest or weed control at 100 ppm (Puccinia triticina; [1]) [%],pest or weed control at 121.5 g/ha (Puccinia triticina; [1]) [%],pest or weed control at 100 ppm (Puccinia triticina; [2]) [%],pest or weed control at 121.5 g/ha (Puccinia triticina; [2]) [%],pest or weed control at 100 ppm (Zymoseptoria tritici; [3]) [%],pest or weed control at 121.5 g/ha (Zymoseptoria tritici; [3]) [%],pest or weed control at 100 ppm (Zymoseptoria tritici; [4]) [%],pest or weed control at 121.5 g/ha (Zymoseptoria tritici; [4]) [%],pest or weed control at 25 ppm (Phakopsora pachyrhizi; [5]) [%],pest or weed control at 25 ppm (Phakopsora pachyrhizi; [6]) [%]
COc1ccnc(C(=O)N[C@@H](C)C(=O)O[C@@H](C)[C@@H](C)c2ccccc2)c1OC(C)=O [Example 258],> 80,< 80,> 80,> 80,< 80,< 80,< 80,> 80,> 80,> 80
COc1ccnc(C(=O)N[C@@H](C)C(=O)OC(C)C(C)c2c(C)cc(F)cc2C)c1OC(=O)C(C)C (stereo partly shown) [Example 244],–,> 80,–,< 80,–,> 80,–,> 80,> 80,> 80
COc1ccnc(C(=O)N[C@@H](C)C(=O)OC(C)C(C)c2c(C)cccc2C)c1OC(=O)C(C)C (stereo partly shown) [Example 243],–,< 80,–,< 80,–,< 80,–,< 80,> 80,> 80
COc1ccnc(C(=O)N[C@@H](C)C(=O)O[C@@H](C)[C@@H](C)c2ccccc2C(F)(F)F)c1OC(C)=O [Example 245],–,> 80,–,< 80,–,> 80,–,> 80,> 80,> 80
COc1ccnc(C(=O)N[C@@H](C)C(=O)O[C@@H](C)[C@@H](C)c2c(C)cccc2C)c1OC(=O)C(C)C [Example 237],–,< 80,–,< 80,–,< 80,–,< 80,> 80,> 80
COc1ccnc(C(=O)N[C@@H](C)C(=O)O[C@@H](C)[C@@H](C)c2ccccc2C(F)(F)F)c1OC(=O)C(C)C [Example 234],–,< 80,–,< 80,–,< 80,–,< 80,> 80,> 80
COc1cc(F)ccc1[C@@H](C)[C@@H](C)OC(=O)[C@H](C)n1c(=O)oc2c(OC)ccnc2c1=O [Example 262],–,< 0,–,< 0,–,< 80,–,< 80,< 80,< 80
COc1ccnc(C(=O)N[C@@H](C)C(=O)O[C@@H](C)[C@@H](C)c2c(C)cc(F)cc2C)c1OC(=O)C(C)C [Example 238],–,> 80,–,< 80,–,> 80,–,> 80,> 80,> 80
COc1ccnc(C(=O)N[C@@H](C)C(=O)O[C@@H](C)[C@@H](C)c2ccc(C)cc2C)c1OC(C)=O [Example 177],–,> 80,–,> 80,–,> 80,–,> 80,> 80,> 80
COc1ccnc(C(=O)N[C@@H](C)C(=O)O[C@H](C)[C@H](C)C2CCCC2)c1OC(C)=O [Example 252],–,< 0,–,< 80,–,< 0,–,< 80,< 80,< 80
COc1ccnc(C(=O)N[C@@H](C)C(=O)O[C@@H](C)[C@@H](C)c2ccc(C)cc2C)c1OC(=O)C(C)C [Example 179],–,> 80,–,> 80,–,< 80,–,< 80,> 80,> 80
COc1ccnc(C(=O)N[C@@H](C)C(=O)O[C@@H](C)[C@@H](C)c2c(C)cccc2C)c1OC(C)=O [Example 248],–,> 80,–,< 80,–,< 80,–,> 80,> 80,> 80
COc1ccnc(C(=O)N[C@@H](C)C(=O)O[C@@H](C)[C@@H](C)c2ccc(C)s2)c1OC(C)=O [Example 259],> 80,< 80,> 80,< 0,< 80,< 80,< 0,< 0,< 80,< 80
COc1ccnc(C(=O)N[C@@H](C)C(=O)O[C@H](C)[C@H](C)c2c(C)cc(F)cc2C)c1OC(=O)C(C)C [Example 242],–,> 80,–,< 80,–,> 80,–,> 80,> 80,> 80
COc1ccnc(C(=O)N[C@@H](C)C(=O)OC(C)C(C)c2c(C)cc(F)cc2C)c1OC(C)=O (stereo partly shown) [Example 256],–,> 80,–,> 80,–,> 80,–,> 80,> 80,> 80
COc1ccnc(C(=O)N[C@@H](C)C(=O)O[C@H](C)[C@H](C)c2c(C)cc(F)cc2C)c1OC(C)=O [Example 254],–,> 80,–,> 80,–,> 80,–,> 80,> 80,> 80
COc1ccnc(C(=O)N[C@@H](C)C(=O)O[C@@H](C)[C@@H](C)c2ccc(F)cc2C)c1O [Example 128],> 80,–,> 80,–,> 80,–,> 80,–,–,> 80
COc1ccnc(C(=S)N[C@@H](C)C(=O)O[C@@H](C)[C@@H](C)C2CCCC2)c1OC(C)=O [Example 272],–,< 80,–,< 80,–,< 80,–,< 80,> 80,< 80
COc1ccnc(C(=O)N[C@@H](C)C(=O)OC(C)C(C)c2c(C)cccc2C)c1OC(C)=O (stereo partly shown) [Example 255],–,> 80,–,< 80,–,< 80,–,> 80,> 80,> 80
COc1ccnc(C(=O)N[C@@H](C)C(=O)O[C@H](C)[C@H](C)c2ccc(F)cc2C(F)(F)F)c1OC(=O)C(C)C [Example 240],–,< 0,–,< 0,–,< 80,–,< 80,< 80,< 80
COc1ccnc(C(=O)N[C@@H](C)C(=O)O[C@@H](C)[C@@H](C)c2ccc(F)cc2C(F)(F)F)c1O [Example 159],> 80,–,> 80,–,> 80,–,> 80,–,–,> 80
COc1ccnc2c(=O)n([C@@H](C)C(=O)O[C@@H](C)[C@@H](C)c3ccccc3)c(=O)oc12 [Example 261],–,< 80,–,< 0,–,< 80,–,< 0,< 80,< 80
COc1ccnc(C(=O)N[C@@H](C)C(=O)O[C@@H](C)[C@@H](C)c2ccc(F)cc2C(F)(F)F)c1OC(=O)C(C)C [Example 235],–,< 80,–,< 80,–,> 80,–,> 80,> 80,> 80
COc1cc(F)ccc1[C@@H](C)[C@@H](C)OC(=O)[C@H](C)NC(=O)c1nccc(OC)c1OC(C)=O [Example 260],> 80,< 0,< 80,< 0,< 80,< 80,< 80,< 0,> 80,< 80
